Results on seven compounds are retold here after patent publication US12384808B2, “Modulators of TNF-α activity” (Forward Therapeutics, Inc., priority 2022, dated 2025).

In this test the target is TNFα (Homo sapiens, UniProt P01375). Put plainly: TNFα Induced HEK Blue Cellular Assay. In kind it is cell-based. As to conditions: HEK Blue TNFα reporter cells, TNFα 100 pg/ml, 24 hrs at 37° C., secreted alkaline phosphatase (QUANTI-Blue) read at 620 nm; read-out: IC50 value. As to the method: TNFα Induced HEK Blue Cellular Assay
Chain of TNFα (P01375 77-233 limits assumed): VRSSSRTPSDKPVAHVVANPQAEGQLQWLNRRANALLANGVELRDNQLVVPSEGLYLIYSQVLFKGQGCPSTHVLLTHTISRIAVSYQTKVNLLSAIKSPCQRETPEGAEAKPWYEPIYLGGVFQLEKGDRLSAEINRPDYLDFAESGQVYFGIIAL
Test articles were diluted in DMSO and serially diluted into 384 well assay plate (Corning 3765), at final concentrations ranging from […] to 0.5 nM. HEK Blue™ TNFα reporter cells were added at a final density of 10,000 cell per well in assay media [DMEM (Gibco, cat #21063-029), 10% fetal bovine serum (ExcelBio, cat #FND500), 1% Penicillin-Streptomycin (Solarbio, cat #P1400-100]. TNFα (R&D 210-TA-020/CF) was then added to the assay plate at a final concentration of 100 pg/ml. This plate was then incubated for 24 hrs at 37° C. and 5% CO2. Secreted alkaline phosphatase expression was then measured using QUANTI-Blue™ (Invivogen), according to manufacturer instructions and read on an Envision microplate reader at 620 nm.
Inhibition data for test compound over a range of concentration was plotted as percentage inhibition of the test compound (100%=maximum inhibition). IC50 values were determined after correcting for background [(sample read−mean of low control)/(mean of high control−mean of low control)] where by the low control is DMSO without stimulation and high control is DMSO with stimulation. The IC50 is defined as the concentration of test compound which produces 50% inhibition and was quantified using the 4 parameter logistic equation to fit the data.
Broadly, the IC50 is the concentration that inhibits the measured activity by half. As for `[2H]C([2H])([2H])N1C(=O)c2cccc(OC(F)F)c2[C@H]2C[C@@H]1c1nc3ccc(-c4ccc(C(C)P(C)(C)=O)cc4)cc3n12` (single isomer, unassigned) [Example 85, (7R,14R)-1-(difluoromethoxy)-11-(4-((S or R)-1-(dimethylphosphoryl)ethyl)phenyl)-6-(methyl-d3)-6,7-dihydro-7,14-methanobenzo[f]benzo[4,5]imidazo[1,2-a][1,4]diazocin-5(14H)-one], the IC50 was less than 100 nM. The result for `[2H]C([2H])([2H])N1C(=O)c2cccc(OC(F)F)c2[C@H]2C[C@@H]1c1nc3ccc(-c4ccc(C(C)P(C)(C)=O)cc4)cc3n12` (single isomer, unassigned) [Example 86, (7R,14R)-1-(difluoromethoxy)-11-(4-((R or S)-1-(dimethylphosphoryl)ethyl)phenyl)-6-(methyl-d3)-6,7-dihydro-7,14-methanobenzo[f]benzo[4,5]imidazo[1,2-a][1,4]diazocin-5(14H)-one] reads less than 100 nM; that for `[2H]C([2H])([2H])N1C(=O)c2cccc(OC(F)F)c2[C@H]2C[C@@H]1c1nc3ccc(-c4ccc(C(C)P(C)(C)=O)c(F)c4)cc3n12` (single isomer, unassigned) [Example 99, (7R,14R)-1-(difluoromethoxy)-11-(4-((S or R)-1-(dimethylphosphoryl)ethyl)-3-fluorophenyl)-6-(methyl-d3)-6,7-dihydro-7,14-methanobenzo[f]benzo[4,5]imidazo[1,2-a][1,4]diazocin-5(14H)-one], less than 100 nM; that for `[2H]C([2H])([2H])N1C(=O)c2cccc(OC(F)F)c2[C@H]2C[C@@H]1c1nc3ccc(-c4ccc(C(C)P(C)(C)=O)c(F)c4)cc3n12` (single isomer, unassigned) [Example 100, (7R,14R)-1-(difluoromethoxy)-11-(4-((R or S)-1-(dimethylphosphoryl)ethyl)-3-fluorophenyl)-6-(methyl-d3)-6,7-dihydro-7,14-methanobenzo[f]benzo[4,5]imidazo[1,2-a][1,4]diazocin-5(14H)-one], less than 100 nM. The result for `[2H]C([2H])([2H])N1C(=O)c2cccc(OC(F)F)c2[C@H]2C[C@@H]1c1nc3ccc(-c4cc(F)c(C(C)P(C)(C)=O)c(F)c4)cc3n12` (single isomer, unassigned) [Example 109, (7R,14R)-1-(difluoromethoxy)-11-(4-((R or S)-1-(dimethylphosphoryl)ethyl)-3,5-difluorophenyl)-6-(methyl-d3)-6,7-dihydro-7,14-methanobenzo[f]benzo[4,5]imidazo[1,2-a][1,4]diazocin-5(14H)-one] reads less than 100 nM. The result for `[2H]C([2H])([2H])N1C(=O)c2cccc(OC(F)F)c2[C@H]2C[C@@H]1c1nc3ccc(-c4ccc(C(C)(O)P(C)(C)=O)cc4)cc3n12` (single isomer, unassigned) [Example 110, (7R,14R)-1-(difluoromethoxy)-11-(4-((S or R)-1-(dimethylphosphoryl)-1-hydroxyethyl)phenyl)-6-(methyl-d3)-6,7-dihydro-7,14-methanobenzo[f]benzo[4,5]imidazo[1,2-a][1,4]diazocin-5(14H)-one] reads less than 100 nM. As to `[2H]C([2H])([2H])N1C(=O)c2cccc(OC(F)F)c2[C@H]2C[C@@H]1c1nc3ccc(-c4ccc([C@@](C)(O)P(C)(C)=O)cc4)cc3n12` (single isomer, unassigned) [Example 111, (7R,14R)-1-(difluoromethoxy)-11-(4-((R or S)-1-(dimethylphosphoryl)-1-hydroxyethyl)phenyl)-6-(methyl-d3)-6,7-dihydro-7,14-methanobenzo[f]benzo[4,5]imidazo[1,2-a][1,4]diazocin-5(14H)-one], the IC50 is less than 100 nM.
